According to patent US9492471B2, “Methods of treating a disease or disorder associated with Bruton'S Tyrosine Kinase” (Celgene Avilomics Research, Inc., priority 2013, dated 2016):
Where two headings read alike, the source gives them in different places.

Assays:
Assay in all cases: HotSpot kinase profiling
Type in all cases: biochemical
COT1/MAP3K8 = target: T1, COT1/MAP3K8 (Homo sapiens, UniProt P41279)
T1 construct: purchased Reaction Biology Corp
Outline: (§1)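 Percent inhibition, averaged when run more than once and referenced to a DMSO negative control, came from a radioactive filter-binding readout on P81 paper. Reactions of kinase with freshly made substrate and cofactors ran for 2 h at room temperature.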

HGK/MAP4K4 = target: T2, HGK/MAP4K4 (Homo sapiens, UniProt O95819)
T2 construct: purchased Reaction Biology Corp
Outline: as §1

PLK3 = target: T3, PLK3 (Homo sapiens, UniProt Q9H4B4)
T3 construct: purchased Reaction Biology Corp
Outline: as §1

CAMK1a = target: T4, CAMK1a (Homo sapiens, UniProt Q14012)
T4 construct: purchased Reaction Biology Corp
Outline: as §1

CAMKK2 = target: T5, CAMKK2 (Homo sapiens, UniProt Q96RR4)
T5 construct: purchased Reaction Biology Corp
Outline: as §1

ALK5/TGFBR1 = target: T6, ALK5/TGFBR1 (Homo sapiens, UniProt P36897)
T6 construct: purchased Reaction Biology Corp
T6 sequence (P36897 34-503): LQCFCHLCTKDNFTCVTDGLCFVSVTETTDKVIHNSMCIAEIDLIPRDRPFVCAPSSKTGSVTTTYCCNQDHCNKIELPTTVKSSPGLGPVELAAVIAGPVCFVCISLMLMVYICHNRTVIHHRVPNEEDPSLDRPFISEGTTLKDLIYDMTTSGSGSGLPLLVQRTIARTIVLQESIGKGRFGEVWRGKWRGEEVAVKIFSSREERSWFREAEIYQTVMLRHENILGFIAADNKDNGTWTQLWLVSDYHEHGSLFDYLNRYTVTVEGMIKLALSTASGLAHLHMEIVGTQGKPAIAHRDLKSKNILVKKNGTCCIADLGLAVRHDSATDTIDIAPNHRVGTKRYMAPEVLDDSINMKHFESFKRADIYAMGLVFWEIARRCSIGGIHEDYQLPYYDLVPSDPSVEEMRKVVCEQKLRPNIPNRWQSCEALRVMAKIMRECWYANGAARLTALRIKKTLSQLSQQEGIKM
Outline: as §1

MELK = target: T7, MELK (Homo sapiens, UniProt Q14680)
T7 construct: purchased Reaction Biology Corp
Outline: as §1

CDK2/cyclin E = target: T8, CDK2/cyclin E (Homo sapiens, UniProt P24941)
T8 construct: purchased Reaction Biology Corp
Outline: as §1

AKT2 = target: T9, AKT2 (Homo sapiens, UniProt P31751)
T9 construct: purchased Reaction Biology Corp
Outline: as §1

ZIPK/DAPK3 = target: T10, ZIPK/DAPK3 (Homo sapiens, UniProt O43293)
T10 construct: purchased Reaction Biology Corp
Outline: as §1

CAMKK1 = target: T11, CAMKK1 (Homo sapiens, UniProt Q8N5S9)
T11 construct: purchased Reaction Biology Corp
Outline: as §1

WNK3 = target: T12, WNK3 (Homo sapiens, UniProt Q9BYP7)
T12 construct: purchased Reaction Biology Corp
Outline: as §1

STK39/STLK3 = target: T13, STK39/STLK3 (Homo sapiens, UniProt Q9UEW8)
T13 construct: purchased Reaction Biology Corp
Outline: as §1

MST3/STK24 = target: T14, MST3/STK24 (Homo sapiens, UniProt Q9Y6E0)
T14 construct: purchased Reaction Biology Corp
Outline: as §1

TRKA = target: T15, TRKA (Homo sapiens, UniProt P04629)
T15 construct: purchased Reaction Biology Corp
Outline: as §1

PDGFRa = target: T16, PDGFRa (Homo sapiens, UniProt P16234)
T16 construct: purchased Reaction Biology Corp
Outline: as §1

PIM1 = target: T17, PIM1 (Homo sapiens, UniProt P11309)
T17 construct: purchased Reaction Biology Corp
Outline: as §1

[1] = read-out: % Enzyme Activity (relative to DMSO controls) Run 1
[2] = read-out: % Enzyme Activity (relative to DMSO controls) Run 2

T9 sequence (P31751 whole entry): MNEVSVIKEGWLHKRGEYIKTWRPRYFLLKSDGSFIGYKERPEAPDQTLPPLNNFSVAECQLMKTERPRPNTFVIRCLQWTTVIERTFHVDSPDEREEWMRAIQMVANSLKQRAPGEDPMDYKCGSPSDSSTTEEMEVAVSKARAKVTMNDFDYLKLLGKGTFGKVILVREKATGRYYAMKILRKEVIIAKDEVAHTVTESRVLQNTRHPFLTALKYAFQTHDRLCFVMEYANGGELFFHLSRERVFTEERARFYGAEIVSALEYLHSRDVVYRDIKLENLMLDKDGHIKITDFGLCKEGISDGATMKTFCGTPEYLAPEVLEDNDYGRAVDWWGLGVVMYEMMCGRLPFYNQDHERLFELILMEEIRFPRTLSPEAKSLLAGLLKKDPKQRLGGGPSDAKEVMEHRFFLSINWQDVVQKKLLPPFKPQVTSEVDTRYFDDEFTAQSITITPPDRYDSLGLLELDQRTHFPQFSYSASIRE
T5 sequence (Q96RR4 whole entry): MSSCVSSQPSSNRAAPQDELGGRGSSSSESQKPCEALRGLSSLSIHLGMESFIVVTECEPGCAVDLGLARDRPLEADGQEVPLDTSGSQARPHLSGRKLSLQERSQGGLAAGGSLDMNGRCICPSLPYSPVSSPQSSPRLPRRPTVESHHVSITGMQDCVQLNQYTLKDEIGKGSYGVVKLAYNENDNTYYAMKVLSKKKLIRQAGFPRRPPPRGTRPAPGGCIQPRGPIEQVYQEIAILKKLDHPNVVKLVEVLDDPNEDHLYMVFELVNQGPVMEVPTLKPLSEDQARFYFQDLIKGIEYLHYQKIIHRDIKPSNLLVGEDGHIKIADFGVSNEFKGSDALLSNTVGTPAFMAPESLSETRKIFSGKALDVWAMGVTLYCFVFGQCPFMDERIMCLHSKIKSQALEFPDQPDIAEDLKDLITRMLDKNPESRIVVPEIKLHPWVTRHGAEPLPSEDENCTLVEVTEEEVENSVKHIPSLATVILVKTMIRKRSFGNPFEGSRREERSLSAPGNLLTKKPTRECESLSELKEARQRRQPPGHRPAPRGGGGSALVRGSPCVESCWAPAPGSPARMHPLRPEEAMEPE
T14 sequence (Q9Y6E0 whole entry): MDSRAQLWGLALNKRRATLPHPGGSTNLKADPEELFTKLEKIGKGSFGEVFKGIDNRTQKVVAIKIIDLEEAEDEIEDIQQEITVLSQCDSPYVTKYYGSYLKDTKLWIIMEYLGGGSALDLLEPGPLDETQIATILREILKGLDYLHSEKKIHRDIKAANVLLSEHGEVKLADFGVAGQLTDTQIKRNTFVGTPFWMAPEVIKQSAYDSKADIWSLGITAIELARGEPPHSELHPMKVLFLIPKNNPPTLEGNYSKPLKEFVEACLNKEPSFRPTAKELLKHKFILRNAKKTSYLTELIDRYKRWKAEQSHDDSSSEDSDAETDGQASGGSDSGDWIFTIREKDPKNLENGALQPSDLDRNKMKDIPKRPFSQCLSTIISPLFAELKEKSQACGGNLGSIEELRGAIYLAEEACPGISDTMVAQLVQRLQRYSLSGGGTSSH
T10 sequence (O43293 whole entry): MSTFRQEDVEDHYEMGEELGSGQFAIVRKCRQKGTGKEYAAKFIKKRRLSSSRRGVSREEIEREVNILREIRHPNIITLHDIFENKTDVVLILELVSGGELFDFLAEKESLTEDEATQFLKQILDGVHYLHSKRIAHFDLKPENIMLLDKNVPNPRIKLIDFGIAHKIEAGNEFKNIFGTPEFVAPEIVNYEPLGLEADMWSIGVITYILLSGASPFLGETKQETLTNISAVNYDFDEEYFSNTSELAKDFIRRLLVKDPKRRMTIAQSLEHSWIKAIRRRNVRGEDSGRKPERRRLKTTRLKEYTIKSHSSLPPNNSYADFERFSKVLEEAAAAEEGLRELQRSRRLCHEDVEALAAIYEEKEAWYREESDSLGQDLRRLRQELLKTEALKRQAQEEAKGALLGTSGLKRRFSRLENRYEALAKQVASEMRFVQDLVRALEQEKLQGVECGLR
T3 sequence (Q9H4B4 whole entry): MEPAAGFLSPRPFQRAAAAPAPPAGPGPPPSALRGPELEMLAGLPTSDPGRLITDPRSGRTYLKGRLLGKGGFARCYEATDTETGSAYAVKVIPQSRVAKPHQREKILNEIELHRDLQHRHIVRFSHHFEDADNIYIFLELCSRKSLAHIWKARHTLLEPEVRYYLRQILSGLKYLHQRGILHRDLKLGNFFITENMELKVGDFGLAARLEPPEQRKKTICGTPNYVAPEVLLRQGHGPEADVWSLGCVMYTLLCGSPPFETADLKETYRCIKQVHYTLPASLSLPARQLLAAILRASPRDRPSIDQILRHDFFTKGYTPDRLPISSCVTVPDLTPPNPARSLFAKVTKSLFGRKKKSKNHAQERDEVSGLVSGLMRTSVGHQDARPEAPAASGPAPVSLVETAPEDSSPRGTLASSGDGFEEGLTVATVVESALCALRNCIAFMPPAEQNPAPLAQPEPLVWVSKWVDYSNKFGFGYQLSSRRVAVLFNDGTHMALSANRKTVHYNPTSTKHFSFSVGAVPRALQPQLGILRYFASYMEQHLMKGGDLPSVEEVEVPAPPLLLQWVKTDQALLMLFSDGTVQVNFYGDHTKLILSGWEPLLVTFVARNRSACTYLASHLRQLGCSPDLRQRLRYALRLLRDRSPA
T11 sequence (Q8N5S9 whole entry): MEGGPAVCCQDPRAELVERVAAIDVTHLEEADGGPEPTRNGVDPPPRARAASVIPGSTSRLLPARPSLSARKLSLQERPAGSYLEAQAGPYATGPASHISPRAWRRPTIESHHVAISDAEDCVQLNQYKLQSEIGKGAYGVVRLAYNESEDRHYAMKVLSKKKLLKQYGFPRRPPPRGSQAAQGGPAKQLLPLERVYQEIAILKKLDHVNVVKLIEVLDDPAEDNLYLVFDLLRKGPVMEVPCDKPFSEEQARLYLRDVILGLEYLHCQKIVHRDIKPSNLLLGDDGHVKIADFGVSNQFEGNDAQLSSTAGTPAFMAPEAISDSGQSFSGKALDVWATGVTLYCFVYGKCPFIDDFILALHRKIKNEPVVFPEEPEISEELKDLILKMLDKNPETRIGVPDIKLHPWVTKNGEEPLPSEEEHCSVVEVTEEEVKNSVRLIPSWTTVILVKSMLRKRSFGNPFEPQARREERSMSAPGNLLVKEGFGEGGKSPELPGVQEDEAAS
T15 sequence (P04629 33-796): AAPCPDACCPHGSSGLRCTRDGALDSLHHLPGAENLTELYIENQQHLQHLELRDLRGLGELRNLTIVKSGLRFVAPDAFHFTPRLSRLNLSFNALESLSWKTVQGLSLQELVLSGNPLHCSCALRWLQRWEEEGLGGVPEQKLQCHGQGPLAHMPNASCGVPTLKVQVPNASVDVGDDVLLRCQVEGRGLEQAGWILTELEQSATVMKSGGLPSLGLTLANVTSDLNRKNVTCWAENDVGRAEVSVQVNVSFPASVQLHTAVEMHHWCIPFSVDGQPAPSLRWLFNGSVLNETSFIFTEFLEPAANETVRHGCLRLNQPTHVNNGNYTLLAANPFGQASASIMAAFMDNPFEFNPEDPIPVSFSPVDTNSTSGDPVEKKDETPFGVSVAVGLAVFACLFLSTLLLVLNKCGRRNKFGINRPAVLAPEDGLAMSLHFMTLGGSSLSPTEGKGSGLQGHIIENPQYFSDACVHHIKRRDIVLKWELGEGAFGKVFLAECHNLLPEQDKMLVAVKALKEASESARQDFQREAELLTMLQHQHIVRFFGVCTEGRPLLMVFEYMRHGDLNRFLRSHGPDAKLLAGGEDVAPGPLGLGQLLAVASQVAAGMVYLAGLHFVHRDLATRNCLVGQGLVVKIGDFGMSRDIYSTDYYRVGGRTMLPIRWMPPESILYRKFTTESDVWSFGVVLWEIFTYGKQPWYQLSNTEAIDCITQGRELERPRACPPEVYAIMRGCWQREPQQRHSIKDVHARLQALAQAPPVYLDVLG
T17 sequence (P11309 whole entry): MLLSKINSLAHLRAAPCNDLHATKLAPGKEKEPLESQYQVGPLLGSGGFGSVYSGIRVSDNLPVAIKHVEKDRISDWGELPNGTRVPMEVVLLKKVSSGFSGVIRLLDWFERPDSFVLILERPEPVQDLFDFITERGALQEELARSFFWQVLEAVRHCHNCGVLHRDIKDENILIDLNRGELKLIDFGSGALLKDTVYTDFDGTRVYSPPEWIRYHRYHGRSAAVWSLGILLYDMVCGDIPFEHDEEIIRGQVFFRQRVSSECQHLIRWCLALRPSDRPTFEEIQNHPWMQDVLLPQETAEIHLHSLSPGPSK
T1 sequence (P41279 whole entry): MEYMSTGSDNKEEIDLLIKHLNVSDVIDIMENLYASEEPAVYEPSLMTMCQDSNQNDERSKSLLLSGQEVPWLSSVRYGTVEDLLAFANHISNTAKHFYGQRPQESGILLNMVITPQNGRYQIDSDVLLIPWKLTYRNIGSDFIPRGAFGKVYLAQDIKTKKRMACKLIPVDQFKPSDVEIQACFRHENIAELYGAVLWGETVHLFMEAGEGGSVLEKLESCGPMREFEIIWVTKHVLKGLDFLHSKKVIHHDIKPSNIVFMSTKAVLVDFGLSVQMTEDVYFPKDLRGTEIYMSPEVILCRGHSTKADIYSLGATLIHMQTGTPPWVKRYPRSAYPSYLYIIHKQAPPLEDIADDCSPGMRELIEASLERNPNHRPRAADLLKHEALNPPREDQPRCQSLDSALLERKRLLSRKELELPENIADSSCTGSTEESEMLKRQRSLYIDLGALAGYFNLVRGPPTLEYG

`C=CC(=O)Nc1cccc(Nc2nc(Nc3ccc(OCCOC)c(F)c3)ncc2F)c1` [Compound 2] was tested, and the inhibition at 3 µM (COT1/MAP3K8) was -1.33%, the remaining activity at 3 µM (COT1/MAP3K8; [1]) was 102% and the remaining activity at 3 µM (COT1/MAP3K8; [2]) was 101%. For the same compound, the inhibition at 3 µM (HGK/MAP4K4) was 1.27%, the remaining activity at 3 µM (HGK/MAP4K4; [1]) was 98.9% and the remaining activity at 3 µM (HGK/MAP4K4; [2]) was 98.6%. For the same compound, the inhibition at 3 µM (PLK3) was 1.28%, the remaining activity at 3 µM (PLK3; [1]) was 97% and the remaining activity at 3 µM (PLK3; [2]) was 100%. It also gave an inhibition at 3 µM (CAMK1a) of -10.4%, a remaining activity at 3 µM (CAMK1a; [1]) of 109% and a remaining activity at 3 µM (CAMK1a; [2]) of 112%. For the same compound, the inhibition at 3 µM (CAMKK2) was 26.8%, the remaining activity at 3 µM (CAMKK2; [1]) was 74.7% and the remaining activity at 3 µM (CAMKK2; [2]) was 71.8%. The inhibition at 3 µM (ALK5/TGFBR1) was -8.03%, the remaining activity at 3 µM (ALK5/TGFBR1; [1]) was 106% and the remaining activity at 3 µM (ALK5/TGFBR1; [2]) was 110%. It also gave an inhibition at 3 µM (MELK) of -8.07%, a remaining activity at 3 µM (MELK; [1]) of 109% and a remaining activity at 3 µM (MELK; [2]) of 107%. The inhibition at 3 µM (CDK2/cyclin E) was 10%, the remaining activity at 3 µM (CDK2/cyclin E; [1]) was 87.9% and the remaining activity at 3 µM (CDK2/cyclin E; [2]) was 92%. The inhibition at 3 µM (AKT2) was 4.23%, the remaining activity at 3 µM (AKT2; [1]) was 93.7% and the remaining activity at 3 µM (AKT2; [2]) was 97.9%. It also gave an inhibition at 3 µM (ZIPK/DAPK3) of -11.3%, a remaining activity at 3 µM (ZIPK/DAPK3; [1]) of 109% and a remaining activity at 3 µM (ZIPK/DAPK3; [2]) of 113%. For the same compound, the inhibition at 3 µM (CAMKK1) was 9.31%, the remaining activity at 3 µM (CAMKK1; [1]) was 93.5% and the remaining activity at 3 µM (CAMKK1; [2]) was 87.9%. For the same compound, the inhibition at 3 µM (WNK3) was 8.34%, the remaining activity at 3 µM (WNK3; [1]) was 91.3% and the remaining activity at 3 µM (WNK3; [2]) was 92%. The inhibition at 3 µM (STK39/STLK3) was 7.74%, the remaining activity at 3 µM (STK39/STLK3; [1]) was 91.6% and the remaining activity at 3 µM (STK39/STLK3; [2]) was 92.9%. The inhibition at 3 µM (MST3/STK24) was 14.5%, the remaining activity at 3 µM (MST3/STK24; [1]) was 86.6% and the remaining activity at 3 µM (MST3/STK24; [2]) was 84.5%. For the same compound, the inhibition at 3 µM (TRKA) was -17.7%, the remaining activity at 3 µM (TRKA; [1]) was 117% and the remaining activity at 3 µM (TRKA; [2]) was 118%. It also gave an inhibition at 3 µM (PDGFRa) of 36.6%, a remaining activity at 3 µM (PDGFRa; [1]) of 63.9% and a remaining activity at 3 µM (PDGFRa; [2]) of 62.8%. The inhibition at 3 µM (PIM1) was -3.82%, the remaining activity at 3 µM (PIM1; [1]) was 104% and the remaining activity at 3 µM (PIM1; [2]) was 104%.
